Activity calls are given as the source filed them.
Key:
[1] = biological target: Vascular endothelial growth factor receptor 3 (Homo sapiens, UniProt P35916); assay type: functional;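 also: value from a kinome-wide profiling panel, with FLT4 as the panel member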
[2] = biological target: Fibroblast growth factor receptor 1 (Homo sapiens, UniProt P11362); assay type: functional
[3] = biological target: Tyrosine-protein kinase ITK/TSK (Homo sapiens, UniProt Q08881); assay type: functional;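 also: affinity for ITK measured as one member of a broad kinase panel profiling binding across the kinome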
[4] = biological target: Vascular endothelial growth factor receptor 2 (Homo sapiens, UniProt P35968); assay type: functional
[5] = biological target: Serine/threonine-protein kinase PLK1 (Homo sapiens, UniProt P53350); assay type: functional;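 also: PLK1 measured as one member of a kinome-wide profiling panel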
[6] = biological target: Insulin-like growth factor 1 receptor (Homo sapiens, UniProt P08069); assay: Navigating the Kinome. Panel member name: IGF1R; assay type: functional
[7] = biological target: Tyrosine-protein kinase receptor UFO (Homo sapiens, UniProt P30530); assay type: functional
Ephrin type-A receptor 2 = Ephrin type-A receptor 2 (Homo sapiens, UniProt P29317); assay type: functional;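 also: EPHA2 tested as one member of a kinome-wide kinase panel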
[8] = biological target: Tyrosine-protein kinase FRK (Homo sapiens, UniProt P42685); assay type: functional;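 also: FRK tested as one member of a kinome panel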
[9] = biological target: Proto-oncogene tyrosine-protein kinase ROS (Homo sapiens, UniProt P08922); assay type: functional;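 also: ROS1 tested as one member of a kinome-wide kinase panel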
[10] = biological target: Interleukin-1 receptor-associated kinase 4 (Homo sapiens, UniProt Q9NWZ3); assay type: functional
[11] = biological target: Maternal embryonic leucine zipper kinase (Homo sapiens, UniProt Q14680); assay type: functional
[12] = biological target: Mitogen-activated protein kinase kinase kinase kinase 5 (Homo sapiens, UniProt Q9Y4K4); assay type: functional;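 also: measured as one member of a kinome-spanning kinase panel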
[13] = biological target: Induced myeloid leukemia cell differentiation protein Mcl-1 (Homo sapiens, UniProt Q07820); assay type: functional
[14] = biological target: Glutathione-S-transferase (Schistosoma japonicum, UniProt Q26513); assay: GST-antibody interaction or FRET quenching – biochemical, TR-FRET, artefact control for Vif-APOBEC3G degradation inhibitor project, dose response (AID 1117362); assay type: functional
[15] = biological target: T1, Zinc finger protein mex-5 (Caenorhabditis elegans, UniProt Q9XUB2); assay: potency of MEX-5 RNA-binding blockers – biochemical, C. elegans, fluorescence polarization, dose response (AID 1960)
T1 sequence (Q9XUB2 whole entry): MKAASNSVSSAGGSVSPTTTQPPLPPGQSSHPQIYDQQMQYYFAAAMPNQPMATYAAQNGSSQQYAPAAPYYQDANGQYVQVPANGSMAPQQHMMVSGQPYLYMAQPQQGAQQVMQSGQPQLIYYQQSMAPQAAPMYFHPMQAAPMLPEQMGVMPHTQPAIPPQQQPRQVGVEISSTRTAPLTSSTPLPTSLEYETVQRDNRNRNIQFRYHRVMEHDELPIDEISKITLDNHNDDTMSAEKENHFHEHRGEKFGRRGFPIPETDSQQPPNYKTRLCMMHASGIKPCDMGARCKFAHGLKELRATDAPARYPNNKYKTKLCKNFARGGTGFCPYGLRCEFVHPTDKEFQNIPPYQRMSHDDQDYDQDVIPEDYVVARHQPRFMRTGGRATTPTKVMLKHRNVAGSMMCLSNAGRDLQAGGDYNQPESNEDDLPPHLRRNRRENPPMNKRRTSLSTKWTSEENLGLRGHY

[16] = biological target: Heat shock 70 kDa protein 1A (Homo sapiens, UniProt P0DMV8); assay: inhibition of Hsp70 binding activity – biochemical, fluorescence polarization, SAR follow-up (AID 1072)
[17] = biological target: T2, Tyrosine-protein phosphatase non-receptor type 7 (Homo sapiens, UniProt P35236); assay type: functional
T2 sequence (P35236 whole entry): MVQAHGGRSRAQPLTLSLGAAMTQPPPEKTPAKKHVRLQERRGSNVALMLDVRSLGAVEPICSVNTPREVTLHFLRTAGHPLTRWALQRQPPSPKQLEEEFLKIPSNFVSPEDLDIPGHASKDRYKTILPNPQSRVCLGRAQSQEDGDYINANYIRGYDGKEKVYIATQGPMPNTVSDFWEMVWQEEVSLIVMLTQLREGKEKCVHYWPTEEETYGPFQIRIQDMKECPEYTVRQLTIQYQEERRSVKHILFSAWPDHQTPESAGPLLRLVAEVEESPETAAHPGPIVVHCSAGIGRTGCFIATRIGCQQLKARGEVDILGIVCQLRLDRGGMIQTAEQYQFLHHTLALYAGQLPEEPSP

Genome polyprotein = Genome polyprotein (dengue virus type 2, UniProt P29990); assay: flavivirus cap methylation enzyme inhibition – biochemical, confirmation dose response, primary screen (AID 588689); assay type: functional
[18] = biological target: T3, Alkaline phosphatase, tissue-nonspecific isozyme (Homo sapiens, UniProt P05186); assay: inhibition of tissue-nonspecific alkaline phosphatase – biochemical, dose response (AID 488882); assay type: functional
T3 sequence (P05186 whole entry): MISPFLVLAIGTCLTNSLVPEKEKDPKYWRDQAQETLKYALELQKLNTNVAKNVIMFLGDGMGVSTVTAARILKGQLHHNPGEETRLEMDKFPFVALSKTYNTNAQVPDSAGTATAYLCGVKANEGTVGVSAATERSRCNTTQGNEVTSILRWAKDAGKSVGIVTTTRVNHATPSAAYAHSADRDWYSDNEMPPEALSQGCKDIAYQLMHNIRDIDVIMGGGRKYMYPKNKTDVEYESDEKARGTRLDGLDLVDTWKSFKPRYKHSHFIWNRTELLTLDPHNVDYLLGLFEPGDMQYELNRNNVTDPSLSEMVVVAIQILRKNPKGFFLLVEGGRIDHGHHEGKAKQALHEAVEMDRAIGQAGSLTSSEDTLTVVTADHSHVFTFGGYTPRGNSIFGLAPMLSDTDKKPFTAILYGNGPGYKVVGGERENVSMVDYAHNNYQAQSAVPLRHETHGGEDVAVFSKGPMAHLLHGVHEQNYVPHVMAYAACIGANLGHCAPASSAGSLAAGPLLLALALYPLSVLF

Nonstructural protein 1 = Nonstructural protein 1 (Influenza A virus, UniProt Q194T2); assay type: functional, Influenza A virus (A/California/07/2009(H1N1))
[19] = biological target: T4, Intestinal-type alkaline phosphatase (Homo sapiens, UniProt P09923); assay: inhibition of human intestinal alkaline phosphatase – biochemical, luminescent, uHTS hits, set 2, dose response (AID 488793); assay type: functional
[20] = biological target: T4, Intestinal-type alkaline phosphatase; assay: Dose Response confirmation of uHTS hits from a small molecule inhibitors of human intestinal alkaline phosphatase via a luminescent assay. [Related pubchem assays (depositor defined):AID2544, AID2574]; assay type: functional
[21] = test system: Streptococcus sp. 'group A'; assay: Streptococcus pyogenes SK(-)GAS viability under kanamycin – luminescence, BacTiterGlo, confirmation, counter-screen for streptokinase expression inhibitor project, dose response (AID 1900); assay type: functional, organism-based; settings: read-out: EC50

T4 sequence (P09923 whole entry): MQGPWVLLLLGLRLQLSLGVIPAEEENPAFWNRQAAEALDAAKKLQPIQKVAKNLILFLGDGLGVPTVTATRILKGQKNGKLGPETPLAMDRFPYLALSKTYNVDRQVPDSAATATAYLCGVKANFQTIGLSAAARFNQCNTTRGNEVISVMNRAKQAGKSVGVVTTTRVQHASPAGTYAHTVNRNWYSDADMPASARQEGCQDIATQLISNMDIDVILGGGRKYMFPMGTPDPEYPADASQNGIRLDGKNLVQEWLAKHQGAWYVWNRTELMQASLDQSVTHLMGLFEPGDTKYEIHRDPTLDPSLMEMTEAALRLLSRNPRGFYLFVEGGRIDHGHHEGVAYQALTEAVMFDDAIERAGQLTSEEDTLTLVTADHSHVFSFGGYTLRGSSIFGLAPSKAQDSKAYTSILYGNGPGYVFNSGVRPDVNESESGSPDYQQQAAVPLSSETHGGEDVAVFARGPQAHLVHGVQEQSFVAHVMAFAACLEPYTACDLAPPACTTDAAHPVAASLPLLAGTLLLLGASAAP
Chain of Tyrosine-protein kinase receptor UFO (P30530 whole entry): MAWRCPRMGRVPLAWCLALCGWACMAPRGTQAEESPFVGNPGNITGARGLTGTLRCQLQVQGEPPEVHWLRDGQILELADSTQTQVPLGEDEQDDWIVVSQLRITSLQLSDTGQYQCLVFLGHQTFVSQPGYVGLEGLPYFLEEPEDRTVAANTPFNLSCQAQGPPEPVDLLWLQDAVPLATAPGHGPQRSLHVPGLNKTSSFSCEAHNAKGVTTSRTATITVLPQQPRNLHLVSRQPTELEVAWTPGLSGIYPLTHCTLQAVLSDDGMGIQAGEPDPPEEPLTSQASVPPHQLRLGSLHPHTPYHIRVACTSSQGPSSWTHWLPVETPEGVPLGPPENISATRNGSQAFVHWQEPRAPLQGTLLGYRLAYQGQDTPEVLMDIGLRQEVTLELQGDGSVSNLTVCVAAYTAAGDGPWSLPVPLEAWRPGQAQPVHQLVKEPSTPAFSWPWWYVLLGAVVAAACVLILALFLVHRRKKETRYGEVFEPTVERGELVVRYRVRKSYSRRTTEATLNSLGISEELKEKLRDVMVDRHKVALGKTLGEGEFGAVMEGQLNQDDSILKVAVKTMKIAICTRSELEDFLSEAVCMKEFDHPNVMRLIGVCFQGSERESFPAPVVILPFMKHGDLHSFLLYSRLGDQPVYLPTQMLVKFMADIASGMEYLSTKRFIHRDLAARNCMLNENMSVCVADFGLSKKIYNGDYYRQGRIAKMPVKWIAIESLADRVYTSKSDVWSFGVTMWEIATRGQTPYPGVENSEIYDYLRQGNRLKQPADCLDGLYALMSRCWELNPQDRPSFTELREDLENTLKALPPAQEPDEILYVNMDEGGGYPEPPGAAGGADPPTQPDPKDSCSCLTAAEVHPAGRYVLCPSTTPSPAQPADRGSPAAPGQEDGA
Chain of Vascular endothelial growth factor receptor 2 (P35968 whole entry): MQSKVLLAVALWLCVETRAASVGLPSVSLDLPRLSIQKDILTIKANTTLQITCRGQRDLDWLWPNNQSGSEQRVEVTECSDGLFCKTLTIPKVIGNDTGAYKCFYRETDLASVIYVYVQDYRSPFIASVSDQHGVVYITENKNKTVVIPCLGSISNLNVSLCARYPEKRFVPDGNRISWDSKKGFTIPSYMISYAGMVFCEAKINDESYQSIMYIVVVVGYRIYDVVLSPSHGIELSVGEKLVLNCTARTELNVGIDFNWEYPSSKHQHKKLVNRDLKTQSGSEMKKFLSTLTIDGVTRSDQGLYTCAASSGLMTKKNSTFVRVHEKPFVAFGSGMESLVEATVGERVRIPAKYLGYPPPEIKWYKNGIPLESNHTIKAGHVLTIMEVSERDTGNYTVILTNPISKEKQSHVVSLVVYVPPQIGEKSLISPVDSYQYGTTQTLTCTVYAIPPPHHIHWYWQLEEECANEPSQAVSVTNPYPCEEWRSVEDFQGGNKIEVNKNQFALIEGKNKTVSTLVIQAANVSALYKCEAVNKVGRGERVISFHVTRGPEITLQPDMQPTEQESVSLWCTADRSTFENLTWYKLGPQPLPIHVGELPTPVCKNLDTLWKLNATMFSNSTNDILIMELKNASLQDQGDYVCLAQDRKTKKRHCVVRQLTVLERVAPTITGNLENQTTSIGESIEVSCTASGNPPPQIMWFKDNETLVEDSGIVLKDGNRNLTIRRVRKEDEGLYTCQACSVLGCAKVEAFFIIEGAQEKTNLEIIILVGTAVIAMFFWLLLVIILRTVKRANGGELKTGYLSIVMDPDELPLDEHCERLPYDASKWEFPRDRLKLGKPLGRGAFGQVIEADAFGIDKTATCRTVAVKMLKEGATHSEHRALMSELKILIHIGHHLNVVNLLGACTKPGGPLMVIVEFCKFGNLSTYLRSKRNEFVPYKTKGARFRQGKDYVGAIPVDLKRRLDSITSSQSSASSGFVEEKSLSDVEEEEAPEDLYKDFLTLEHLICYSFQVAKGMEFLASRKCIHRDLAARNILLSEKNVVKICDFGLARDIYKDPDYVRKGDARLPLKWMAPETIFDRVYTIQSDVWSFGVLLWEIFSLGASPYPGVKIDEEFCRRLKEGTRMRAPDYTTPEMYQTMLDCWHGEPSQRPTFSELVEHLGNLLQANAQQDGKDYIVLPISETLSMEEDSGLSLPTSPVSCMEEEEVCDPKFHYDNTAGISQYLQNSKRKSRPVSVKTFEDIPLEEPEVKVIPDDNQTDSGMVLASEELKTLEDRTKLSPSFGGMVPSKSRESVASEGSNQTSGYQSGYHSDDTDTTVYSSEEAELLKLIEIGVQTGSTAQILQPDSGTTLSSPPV
Chain of Maternal embryonic leucine zipper kinase (Q14680 whole entry): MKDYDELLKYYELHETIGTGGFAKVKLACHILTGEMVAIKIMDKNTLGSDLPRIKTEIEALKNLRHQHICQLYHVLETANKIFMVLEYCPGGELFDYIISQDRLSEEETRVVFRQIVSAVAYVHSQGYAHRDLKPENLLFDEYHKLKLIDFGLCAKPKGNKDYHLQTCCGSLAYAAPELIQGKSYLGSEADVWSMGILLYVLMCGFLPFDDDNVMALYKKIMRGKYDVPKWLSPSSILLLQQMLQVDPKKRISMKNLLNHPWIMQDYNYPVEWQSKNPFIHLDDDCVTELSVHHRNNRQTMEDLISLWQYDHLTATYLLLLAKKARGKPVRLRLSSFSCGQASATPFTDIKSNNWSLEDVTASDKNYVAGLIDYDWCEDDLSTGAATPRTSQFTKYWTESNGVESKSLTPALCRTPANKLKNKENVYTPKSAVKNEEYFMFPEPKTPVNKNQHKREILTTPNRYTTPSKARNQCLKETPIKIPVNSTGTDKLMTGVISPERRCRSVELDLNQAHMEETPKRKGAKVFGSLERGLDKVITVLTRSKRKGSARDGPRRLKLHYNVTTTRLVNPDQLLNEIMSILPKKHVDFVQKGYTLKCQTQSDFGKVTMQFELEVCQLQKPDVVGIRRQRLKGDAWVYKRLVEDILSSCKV
Chain of Nonstructural protein 1 (Q194T2 whole entry): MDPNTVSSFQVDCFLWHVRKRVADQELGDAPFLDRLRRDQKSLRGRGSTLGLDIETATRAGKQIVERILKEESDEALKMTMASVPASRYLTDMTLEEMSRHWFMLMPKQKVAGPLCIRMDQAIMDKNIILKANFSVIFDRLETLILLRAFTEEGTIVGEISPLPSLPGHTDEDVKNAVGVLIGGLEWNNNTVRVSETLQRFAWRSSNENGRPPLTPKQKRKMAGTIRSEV
Chain of Tyrosine-protein kinase FRK (P42685 whole entry): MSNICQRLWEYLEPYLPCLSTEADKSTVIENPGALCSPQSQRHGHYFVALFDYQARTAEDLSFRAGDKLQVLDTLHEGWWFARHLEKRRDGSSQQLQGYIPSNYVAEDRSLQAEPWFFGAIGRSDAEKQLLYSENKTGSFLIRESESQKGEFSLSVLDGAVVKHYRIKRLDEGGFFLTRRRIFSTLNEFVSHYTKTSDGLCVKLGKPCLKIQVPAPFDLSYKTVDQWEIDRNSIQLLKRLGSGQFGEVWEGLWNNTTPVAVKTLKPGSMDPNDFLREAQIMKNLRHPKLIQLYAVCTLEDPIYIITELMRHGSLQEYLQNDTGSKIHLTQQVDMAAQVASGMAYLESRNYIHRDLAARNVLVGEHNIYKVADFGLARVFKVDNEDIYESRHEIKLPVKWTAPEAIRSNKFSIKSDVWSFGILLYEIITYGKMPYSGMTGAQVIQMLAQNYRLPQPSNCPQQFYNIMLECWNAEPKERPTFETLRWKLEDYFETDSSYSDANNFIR
Chain of Induced myeloid leukemia cell differentiation protein Mcl-1 (Q07820 whole entry): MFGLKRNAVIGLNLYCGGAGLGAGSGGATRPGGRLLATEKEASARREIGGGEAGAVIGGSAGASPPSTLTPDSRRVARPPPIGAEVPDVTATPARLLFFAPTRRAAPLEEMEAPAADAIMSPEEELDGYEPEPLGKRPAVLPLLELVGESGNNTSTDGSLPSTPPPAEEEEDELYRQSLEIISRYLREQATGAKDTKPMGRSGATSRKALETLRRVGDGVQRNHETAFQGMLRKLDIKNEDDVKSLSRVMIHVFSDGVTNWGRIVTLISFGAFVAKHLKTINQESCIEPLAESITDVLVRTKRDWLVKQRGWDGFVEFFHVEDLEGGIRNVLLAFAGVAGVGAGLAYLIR
Chain of Interleukin-1 receptor-associated kinase 4 (Q9NWZ3 whole entry): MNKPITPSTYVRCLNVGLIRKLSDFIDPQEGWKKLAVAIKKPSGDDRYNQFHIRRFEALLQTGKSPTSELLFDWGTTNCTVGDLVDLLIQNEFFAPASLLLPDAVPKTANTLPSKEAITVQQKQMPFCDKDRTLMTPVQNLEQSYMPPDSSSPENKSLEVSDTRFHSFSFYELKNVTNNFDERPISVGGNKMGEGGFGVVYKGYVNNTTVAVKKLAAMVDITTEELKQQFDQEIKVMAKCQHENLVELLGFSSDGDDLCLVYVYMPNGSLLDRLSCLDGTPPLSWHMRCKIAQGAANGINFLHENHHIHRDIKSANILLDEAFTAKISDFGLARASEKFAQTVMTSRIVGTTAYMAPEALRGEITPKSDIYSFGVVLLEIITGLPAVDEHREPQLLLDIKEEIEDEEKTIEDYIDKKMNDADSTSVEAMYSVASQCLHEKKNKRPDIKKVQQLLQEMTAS

Which Ki [1] does the source give for `Cc1n[nH]c2ccc(-c3cncc(OCC(N)Cc4cccc(Cl)c4)c3)cc12` (stereo not given) here?
The Ki was 2.51 µM (active).

What about the Ki [2] of the same compound?
The Ki was 5.01 µM (active).

What about the Ki [3] of the same compound?
The Ki was > 1.58 µM (inactive).

And the Ki [4]?
The Ki was 3.98 µM (active).

What about the Ki [5] of the same compound?
Its Ki is > 7.94 µM (inactive).

What about the Ki [6] of the same compound?
The Ki was > 2 µM (inactive).

What about the Ki [7] of the same compound?
The Ki was 158 nM (active).

And the pKi [7]?
Its pKi is 6.8.

And the Ki (Ephrin type-A receptor 2)?
The Ki was > 3.16 µM (inactive).

What about the Ki [8] of the same compound?
Its Ki is > 2.51 µM (inactive).

And the Ki [9]?
Its Ki is 631 nM (active).

What about the Ki [10] of the same compound?
The Ki was 158 nM (active).

And the Ki [11]?
Its Ki is 79.4 nM (active).

And the Ki [12]?
The Ki was 251 nM (active).

What does the source list for `O=C(O)C1Nc2c(O)cc(Cl)c([N+](=O)[O-])c2C2C=CCC12` (stereo not given)?
IC50 [13]: > 54 µM (active); IC50 [14]: > 100 µM (active); EC50 [15]: 19.1 µM (inconclusive); IC50 [16]: 22.4 µM (active); IC50 [17]: 3.84 µM (active)

With `O=C1N=C(NS(=O)(=O)Cc2ccccc2)S/C1=C1\C(=O)Nc2ccccc21` as the compound, how does the IC50 (Genome polyprotein) read?
Its IC50 is 51.6 µM (active).

With `Oc1ccc(N=Nc2c(O)ccc3ccccc23)cc1` as the compound, how does the IC50 [18] read?
The IC50 was 16.5 µM (active).

And the IC50 (Nonstructural protein 1)?
Its IC50 is 17.5 µM (active).

What about the IC50 [19] of the same compound?
The IC50 was 15.5 µM (active).

And the IC50 [20]?
Its IC50 is 17.7 µM (inactive).

How did the EC50 [21] turn out when `O=C1C=C(N2CCCCC2)c2ccccc2C1=O` was run?
The EC50 was 1.88 µM (active).

— ChEMBL document CHEMBL1201862, “PubChem BioAssay data set” (2004)
